Measurements reported in patent US20020137929A1, “1 - (3-heterocyclylphenyl) isothiourea, -isourea, -guanidine and -amidine herbicidal agents” (Intellectual Property Department, BASF Aktiengesellschaft, priority 1998, published 2002).

Key:
[1] = tested on: ORYSAT (Rice, Tebonnet); assay: Postemergence herbicidal evaluation; assay type: in vivo, Oryza sativa, (L.) Tebonnet; conditions: for ORYSAT herbicidal rating: postemergence
Outline: (§1)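 Visual 0–9 rating versus control (stand, vigor, malformation, size, chlorosis, overall appearance), taken four to five weeks post-spray. Two-week-old seedlings received roughly 0.0156–0.500 kg/ha active in acetone/water (50/50) with 0.5% TWEEN 20 via nozzle at 40 psi.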

[2] = tested on: ECHCG (Barnyardgrass); assay: Preemergence herbicidal evaluation; assay type: in vivo, Echinochloa crus-galli; conditions: rated 4-5 weeks after treatment
Outline: (§2)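 Preemergence soil application of compound, sprayed in aqueous acetone at rates equivalent to about 0.0156 to 0.500 kg per hectare onto freshly sown cups. Plant response was judged by eye on a 0-9 scale four to five weeks later.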

[3] = tested on: SETVI (Foxtail, Green); assay: Preemergence herbicidal evaluation; assay type: in vivo, Setaria viridis; conditions: rated 4-5 weeks after treatment
Outline: as §2

[4] = tested on: SAGPY (Arrowhead (Pygmaea)); assay: Postemergence weed control under flooded paddy conditions; assay type: in vivo, Sagittaria pygmaea; conditions: postemergence weeds, rated 3 to 4 weeks after treatment
Outline: (§3)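 With weeds 3 to 5 cm tall and rice at the 1.5 to 2.5 leaf stage, containers were flooded and water held 1.5 to 3 cm above soil. Compounds in 50/50 v/v aqueous/acetone went into the flood water at about 0.0313 to 0.500 kg/ha a.i. Effects were visually rated 0–9 against controls after three to four weeks in the greenhouse.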

[5] = tested on: SETVI (Foxtail, Green); assay: Postemergence herbicidal evaluation; assay type: in vivo, Setaria viridis; conditions: for SETVI herbicidal rating: postemergence
Outline: as §1

[6] = tested on: CYPIR (Rice Flatsedge); assay: Preemergence weed control under flooded paddy conditions; assay type: in vivo, Cyperus iria; conditions: rated 3-4 weeks after treatment
Outline: (§4)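 Flooded-pot preemergence screen with silt loam and seeds in the upper 0.5 cm. Dose about 0.0313 to 0.500 kg/ha, delivered into flood water; visual 0-9 score after 3 to 4 weeks.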

[7] = tested on: CYPSE (Flatsedge); assay: Postemergence weed control under flooded paddy conditions; assay type: in vivo, Cyperus serotinus; conditions: postemergence weeds, rated 3 to 4 weeks after treatment
Outline: as §3

[8] = tested on: ECHORC (Watergrass (Calif.)); assay: as above; assay type: in vivo, Echinochloa oryzoides; conditions: postemergence weeds, rated 3 to 4 weeks after treatment
Outline: as §3

[9] = tested on: CYPIR (Rice Flatsedge); assay: as above; assay type: in vivo, Cyperus iria; conditions: postemergence weeds, rated 3 to 4 weeks after treatment
Outline: as §3

[10] = tested on: ZEAMX (Corn, Field); assay: Postemergence herbicidal evaluation; assay type: in vivo, Zea mays; conditions: for ZEAMX herbicidal rating: postemergence
Outline: as §1

[11] = tested on: ECHORC (Watergrass (Calif.)); assay: Preemergence weed control under flooded paddy conditions; assay type: in vivo, Echinochloa oryzoides; conditions: rated 3-4 weeks after treatment
Outline: as §4

[12] = tested on: ZEAMX (Corn, Field); assay: Preemergence herbicidal evaluation; assay type: in vivo, Zea mays; conditions: rated 4-5 weeks after treatment
Outline: as §2

[13] = tested on: CYPSE (Flatsedge); assay: Preemergence weed control under flooded paddy conditions; assay type: in vivo, Cyperus serotinus; conditions: rated 3-4 weeks after treatment
Outline: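 Silt loam, seeds in top 0.5 cm; flood held 1.5-3 cm; test cpd as acetone/water 50/50 into flood water, ~0.0313-0.500 kg/ha a.i.; greenhouse 3-4 wk; visual 0-9 score vs control.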

[14] = tested on: TRZAWR (Wheat, Winter, cv Riband); assay: Preemergence herbicidal evaluation; assay type: in vivo, Triticum aestivum; conditions: rated 4-5 weeks after treatment
Outline: as §2

Structure (SMILES): C=CCN1C(=O)C(CC(=O)OC)SC1=Nc1cc(-n2c(=O)cc(C(F)(F)F)n(C)c2=O)c(F)cc1Cl (centres unmarked) [Compound 64, Methyl 3-allyl-2-{{2-chloro-5-[3,6-dihydro-3-methyl-2,6-dioxo-4-(trifluoromethyl)-1(2H)-pyrimidinyl]-4-fluorophenyl}imino}-4-oxo-5-thiazolidineacetate]
- Postemergence herbicidal rating ORYSAT ([1]; Rate 0.0158 kg/ha): 6.0
- Postemergence herbicidal rating ORYSAT ([1]; Rate 0.0315 kg/ha): 6.0
- Postemergence herbicidal rating ORYSAT ([1]; Rate 0.0630 kg/ha): 6.0
- Preemergence herbicidal rating ECHCG ([2]; rate 0.0156 kg/ha): 0.0
- Preemergence herbicidal rating ECHCG ([2]; rate 0.0313 kg/ha): 0.0
- Preemergence herbicidal rating ECHCG ([2]; rate 0.0625 kg/ha): 1.0
- Preemergence herbicidal rating ECHCG ([2]; rate 0.1250 kg/ha): 3.0
- Preemergence herbicidal rating ECHCG ([2]; rate 0.2500 kg/ha): 6.0
- Preemergence herbicidal rating SETVI ([3]; rate 0.0156 kg/ha): 0.0
- Preemergence herbicidal rating SETVI ([3]; rate 0.0313 kg/ha): 0.0
- Preemergence herbicidal rating SETVI ([3]; rate 0.0625 kg/ha): 9.0
- Preemergence herbicidal rating SETVI ([3]; rate 0.1250 kg/ha): 7.0
- Preemergence herbicidal rating SETVI ([3]; rate 0.2500 kg/ha): 9.0
- Herbicidal rating SAGPY ([4]; Rate 0.0313 kg/ha): 0.0
- Herbicidal rating SAGPY ([4]; Rate 0.0625 kg/ha): 3.0
- Herbicidal rating SAGPY ([4]; Rate 0.1250 kg/ha): 5.0
- Herbicidal rating SAGPY ([4]; Rate 0.2500 kg/ha): 8.0
- Postemergence herbicidal rating SETVI ([5]; Rate 0.0158 kg/ha): 6.0
- Postemergence herbicidal rating SETVI ([5]; Rate 0.0315 kg/ha): 7.0
- Postemergence herbicidal rating SETVI ([5]; Rate 0.0630 kg/ha): 9.0
- CYPIR herbicidal effect rating ([6]; 0.0313 kg/ha): 0.0
- CYPIR herbicidal effect rating ([6]; 0.0625 kg/ha): 2.0
- CYPIR herbicidal effect rating ([6]; 0.1250 kg/ha): 2.0
- CYPIR herbicidal effect rating ([6]; 0.2500 kg/ha): 7.0
- Herbicidal rating CYPSE ([7]; Rate 0.0313 kg/ha): 0.0
- Herbicidal rating CYPSE ([7]; Rate 0.0625 kg/ha): 0.0
- Herbicidal rating CYPSE ([7]; Rate 0.1250 kg/ha): 0.0
- Herbicidal rating CYPSE ([7]; Rate 0.2500 kg/ha): 0.0
- Herbicidal rating ECHORC ([8]; Rate 0.0313 kg/ha): 5.0
- Herbicidal rating ECHORC ([8]; Rate 0.0625 kg/ha): 6.0
- Herbicidal rating ECHORC ([8]; Rate 0.1250 kg/ha): 6.0
- Herbicidal rating ECHORC ([8]; Rate 0.2500 kg/ha): 9.0
- Herbicidal rating CYPIR ([9]; Rate 0.0313 kg/ha): 0.0
- Herbicidal rating CYPIR ([9]; Rate 0.0625 kg/ha): 2.0
- Herbicidal rating CYPIR ([9]; Rate 0.1250 kg/ha): 2.0
- Herbicidal rating CYPIR ([9]; Rate 0.2500 kg/ha): 7.0
- Postemergence herbicidal rating ZEAMX ([10]; Rate 0.0158 kg/ha): 7.0
- Postemergence herbicidal rating ZEAMX ([10]; Rate 0.0315 kg/ha): 8.0
- Postemergence herbicidal rating ZEAMX ([10]; Rate 0.0630 kg/ha): 8.0
- ECHORC herbicidal effect rating ([11]; 0.0313 kg/ha): 5.0
- ECHORC herbicidal effect rating ([11]; 0.0625 kg/ha): 6.0
- ECHORC herbicidal effect rating ([11]; 0.1250 kg/ha): 6.0
- ECHORC herbicidal effect rating ([11]; 0.2500 kg/ha): 9.0
- Preemergence herbicidal rating ZEAMX ([12]; rate 0.0156 kg/ha): 0.0
- Preemergence herbicidal rating ZEAMX ([12]; rate 0.0313 kg/ha): 0.0
- Preemergence herbicidal rating ZEAMX ([12]; rate 0.0625 kg/ha): 1.0
- Preemergence herbicidal rating ZEAMX ([12]; rate 0.1250 kg/ha): 3.0
- Preemergence herbicidal rating ZEAMX ([12]; rate 0.2500 kg/ha): 7.0
- CYPSE herbicidal effect rating ([13]; 0.0313 kg/ha): 0.0
- CYPSE herbicidal effect rating ([13]; 0.0625 kg/ha): 0.0
- CYPSE herbicidal effect rating ([13]; 0.1250 kg/ha): 0.0
- CYPSE herbicidal effect rating ([13]; 0.2500 kg/ha): 0.0
- Preemergence herbicidal rating TRZAWR ([14]; rate 0.0156 kg/ha): 0.0
- Preemergence herbicidal rating TRZAWR ([14]; rate 0.0313 kg/ha): 0.0
- Preemergence herbicidal rating TRZAWR ([14]; rate 0.0625 kg/ha): 1.0
- Preemergence herbicidal rating TRZAWR ([14]; rate 0.1250 kg/ha): 1.0
- Preemergence herbicidal rating TRZAWR ([14]; rate 0.2500 kg/ha): 3.0

Structure (SMILES): C=CCOC(=O)CC1SC(=Nc2cc(-n3c(=O)cc(C(F)(F)F)n(C)c3=O)c(F)cc2Cl)N(CC=C)C1=O (centres unmarked) [Compound 65, Allyl 3-allyl-2-{(2-chloro-5-[3,6-dihydro-3-methyl-2,6-dioxo-4-(trifluoromethyl)-1(2H)-pyrimidinyl]-4-fluorophenyl}imino}-4-oxo-5-thiazolidineacetate]
- ORYSAT herbicidal rating ([1]; rate 0.0158 kg/ha): 4.0
- ORYSAT herbicidal rating ([1]; rate 0.0315 kg/ha): 6.0
- ORYSAT herbicidal rating ([1]; rate 0.0630 kg/ha): 6.0
- Preemergence herbicidal rating ECHCG ([2]; rate 0.0156 kg/ha): 0.0
- Preemergence herbicidal rating ECHCG ([2]; rate 0.0313 kg/ha): 0.0
- Preemergence herbicidal rating ECHCG ([2]; rate 0.0625 kg/ha): 0.0
- Preemergence herbicidal rating ECHCG ([2]; rate 0.1250 kg/ha): 2.0
- Preemergence herbicidal rating ECHCG ([2]; rate 0.2500 kg/ha): 5.0
- Preemergence herbicidal rating SETVI ([3]; rate 0.0156 kg/ha): 0.0
- Preemergence herbicidal rating SETVI ([3]; rate 0.0313 kg/ha): 1.0
- Preemergence herbicidal rating SETVI ([3]; rate 0.0625 kg/ha): 2.0
- Preemergence herbicidal rating SETVI ([3]; rate 0.1250 kg/ha): 7.0
- Preemergence herbicidal rating SETVI ([3]; rate 0.2500 kg/ha): 9.0
- Herbicidal rating SAGPY ([4]; Rate 0.0313 kg/ha): 2.0
- Herbicidal rating SAGPY ([4]; Rate 0.0625 kg/ha): 4.0
- Herbicidal rating SAGPY ([4]; Rate 0.1250 kg/ha): 5.0
- Herbicidal rating SAGPY ([4]; Rate 0.2500 kg/ha): 7.0
- SETVI herbicidal rating ([5]; rate 0.0158 kg/ha): 7.0
- SETVI herbicidal rating ([5]; rate 0.0315 kg/ha): 7.0
- SETVI herbicidal rating ([5]; rate 0.0630 kg/ha): 9.0
- CYPIR herbicidal effect rating ([6]; 0.0313 kg/ha): 6.0
- CYPIR herbicidal effect rating ([6]; 0.0625 kg/ha): 7.0
- CYPIR herbicidal effect rating ([6]; 0.1250 kg/ha): 7.0
- CYPIR herbicidal effect rating ([6]; 0.2500 kg/ha): 8.0
- Herbicidal rating CYPSE ([7]; Rate 0.0313 kg/ha): 0.0
- Herbicidal rating CYPSE ([7]; Rate 0.0625 kg/ha): 0.0
- Herbicidal rating CYPSE ([7]; Rate 0.1250 kg/ha): 0.0
- Herbicidal rating CYPSE ([7]; Rate 0.2500 kg/ha): 0.0
- Herbicidal rating ECHORC ([8]; Rate 0.0313 kg/ha): 5.0
- Herbicidal rating ECHORC ([8]; Rate 0.0625 kg/ha): 5.0
- Herbicidal rating ECHORC ([8]; Rate 0.1250 kg/ha): 6.0
- Herbicidal rating ECHORC ([8]; Rate 0.2500 kg/ha): 7.0
- Herbicidal rating CYPIR ([9]; Rate 0.0313 kg/ha): 6.0
- Herbicidal rating CYPIR ([9]; Rate 0.0625 kg/ha): 7.0
- Herbicidal rating CYPIR ([9]; Rate 0.1250 kg/ha): 7.0
- Herbicidal rating CYPIR ([9]; Rate 0.2500 kg/ha): 8.0
- ZEAMX herbicidal rating ([10]; rate 0.0158 kg/ha): 8.0
- ZEAMX herbicidal rating ([10]; rate 0.0315 kg/ha): 8.0
- ZEAMX herbicidal rating ([10]; rate 0.0630 kg/ha): 7.5
- ECHORC herbicidal effect rating ([11]; 0.0313 kg/ha): 5.0
- ECHORC herbicidal effect rating ([11]; 0.0625 kg/ha): 5.0
- ECHORC herbicidal effect rating ([11]; 0.1250 kg/ha): 6.0
- ECHORC herbicidal effect rating ([11]; 0.2500 kg/ha): 7.0
- Preemergence herbicidal rating ZEAMX ([12]; rate 0.0156 kg/ha): 0.0
- Preemergence herbicidal rating ZEAMX ([12]; rate 0.0313 kg/ha): 0.0
- Preemergence herbicidal rating ZEAMX ([12]; rate 0.0625 kg/ha): 1.0
- Preemergence herbicidal rating ZEAMX ([12]; rate 0.1250 kg/ha): 2.0
- Preemergence herbicidal rating ZEAMX ([12]; rate 0.2500 kg/ha): 4.0
- CYPSE herbicidal effect rating ([13]; 0.0313 kg/ha): 0.0
- CYPSE herbicidal effect rating ([13]; 0.0625 kg/ha): 0.0
- CYPSE herbicidal effect rating ([13]; 0.1250 kg/ha): 0.0
- CYPSE herbicidal effect rating ([13]; 0.2500 kg/ha): 0.0
- Preemergence herbicidal rating TRZAWR ([14]; rate 0.0313 kg/ha): 0.0
- Preemergence herbicidal rating TRZAWR ([14]; rate 0.0625 kg/ha): 1.0
- Preemergence herbicidal rating TRZAWR ([14]; rate 0.1250 kg/ha): 1.0
- Preemergence herbicidal rating TRZAWR ([14]; rate 0.2500 kg/ha): 3.0
